Consider three molecules from patent US6653081B2, “Methods for monitoring antiretroviral therapy and guiding therapeutic decision in the treatment of HIV/AIDS” (ViroLogic, Inc., priority 2000, dated 2003).

The subject of one assay is M230L-RTV. As to the kind of experiment: Phenotypic susceptibility assay, M230L-RTV. The assay is classed as cell-based, HIV-1. To be noted: site-directed M230L alone. An excerpt: (§1) The resistance test vectors containing a functional luciferase gene cassette were constructed and host cells were transfected with the resistance test vector DNA. The resistant test vectors contained patient-derived reverse transcriptase and protease sequences that were either susceptible or resistant to the antiretroviral agents, such as nucleoside reverse transcriptase inhibitors, (NRTIs) non-nucleoside reverse transcriptase inhibitors […] protease inhibitors. The resistance test vector viral particles produced by transfecting the resistance test vector DNA into host cells, either in the presence or absence of PRIs, were used to infect target host cells grown either in the absence of NRTIs or NNRTIs, or in the presence of increasing concentrations of the drug. The amount of luciferase activity produced in infected target host cells in the presence of varying concentrations of drug was compared to the amount of luciferase produced in infected target host cells in the absence of drug. “Drug resistance” was measured as the amount of drug required to inhibit by 50% the luciferase activity detected in the absence of drug (inhibitory concentration 50%, IC50). The IC50 values were determined by plotting percent drug inhibition vs. log10 drug concentration. Stimulation of viral replication was measured as the percent increase in luciferase activity detected when infection occurs in the presence of drug as compared to in the absence of drug.
(§2) Host cells were seeded in 10-cm-diameter dishes and were transfected several days after plating with resistance test vector plasmid DNA and the envelope expression vector. Transfections were performed using a calcium-phosphate precipitation procedure. The cell culture media containing the DNA precipitate was replaced with fresh medium, from one to 24 hours, after transfection. Cell culture media containing resistance test vector viral particles was harvested one to four days after transfection and was passed through a […] filter before being used to infect target host cells, or being stored at −80° C. HIV capsid protein (p24) levels in the harvested cell culture media were determined by an EIA method as described by the manufacturer (SAIC; Frederick, Md.). Before infection, target cells (293 and 293/T) were plated in cell culture media. Control infections were performed using cell culture media from mock transfections (no DNA) or transfections containing the resistance test vector plasmid DNA without the envelope expression plasmid. One to three or more days after infection, the media was removed and cell lysis buffer (Promega) was added to each well. Cell lysates were assayed for luciferase activity (FIG. 3). The inhibitory effect of the drug was determined using the following equation:
(§3) % luciferase inhibition=1−(RLUluc[drug]÷RLUluc)×100
(§4) where RLUluc [drug] is the Relative Light Unit of luciferase activity in infected cells in the presence of drug, and RLUluc is the Relative Light Unit of luciferase activity in infected cells in the absence of drug. IC50values were obtained from the sigmoidal curves that were generated from the data by plotting the percent inhibition of luciferase activity vs. the log10 drug concentration. The percent luciferase stimulation is the negative of the % inhibition calculated using the formula above.
The M230L mutation was introduced into a wild-type (drug sensitive) resistance test vector using the mega-primer method for site-directed mutagenesis (Sakar and Sommar, Ibid.). The resulting resistance test vector containing the M230L mutation (M230L-RTV) was then tested using the phenotypic assay described earlier, and the results were compared to those determined using a genetically defined resistance test vector that was wild type at position 230. We determined the pattern of phenotypic susceptibility to the NNRTIs, delavirdine, nevirapine and efavirenz, in the M230L-RTV. […]

The next assay relates to RTV-013522/270I. The experiment in a line: Phenotypic susceptibility assay, RTV-013522/270I. The assay is classed as cell-based, HIV. The settings on record: RTV-013522 with I270S reverted.
Description: as §1, §2, §3, §4
A resistance test vector containing all of the mutations present in […] except for the I270S (RTV-013522/270I) was constructed and tested using the phenotypic assay described earlier. The results were compared to those determined using the parent RTV-013522. We determined the pattern of phenotypic susceptibility to the NNRTIs, delavirdine, nevirapine and efavirenz, in the reverted vector RTV-013522/270I. […] In this patient sample the correlation of drug-dependent stimulation of viral replication with the mutation at I270S is very striking. […]

The next assay relates to RTV-K103N/I135T/V245E. The experiment in a line: Phenotypic susceptibility assay, RTV-K103N/I135T/V245E. The assay is classed as cell-based, HIV-1. The settings on record: site-directed K103N + I135T + V245E.
Description: as §1, §2, §3, §4
A resistance test vector containing three mutations, K103N, I135T and V245E (RTV-K103N/I135T/V245E) was constructed and tested in the phenotypic assay described earlier. The results were compared to those determined using a genetically defined resistance test vector that was wild type at positions 103, 135 and 245. We determined the pattern of phenotypic susceptibility to the NNRTIs, delavirdine, nevirapine and efavirenz, in RTV-K103N.

In a further assay the test system is RTV-1033-3/184V. The experiment in a line: Phenotypic susceptibility assay, RTV-1033-3/184V. The assay is classed as cell-based, HIV. To be noted: RTV-1033-3 plus M184V.
Description: as §1, §2, §3, §4
A resistance test vector containing all of the mutations present in RTV-1033-3 in addition to M184V (RTV-1033-3/184V) was constructed and tested using the phenotypic assay described earlier. The results were compared to those determined using the parent RTV-1033-3. We determined the pattern of phenotypic susceptibility to the NNRTIs, delavirdine, nevirapine and efavirenz, in the mutated vector, RTV-1033-3/184V.

In the next assay the test system is RTV-309-3. As to the kind of experiment: Phenotypic susceptibility assay, RTV-309-3. The assay is classed as cell-based, HIV. The settings on record: single clone from the RTV-309 pool. An excerpt: The resistance test vectors containing a functional luciferase gene cassette were constructed and host cells were transfected with the resistance test vector DNA. The resistant test vectors contained patient-derived reverse transcriptase and protease sequences that were either susceptible or resistant to the antiretroviral agents, such as nucleoside reverse transcriptase inhibitors, (NRTIs) non-nucleoside reverse transcriptase inhibitors […] protease inhibitors. The resistance test vector viral particles produced by transfecting the resistance test vector DNA into host cells, either in the presence or absence of PRIs, were used to infect target host cells grown either in the absence of NRTIs or NNRTIs, or in the presence of increasing concentrations of the drug. The amount of luciferase activity produced in infected target host cells in the presence of varying concentrations of drug was compared to the amount of luciferase produced in infected target host cells in the absence of drug. […] The IC50 values were determined by plotting percent drug inhibition vs. log10 drug concentration. Stimulation of viral replication was measured as the percent increase in luciferase activity detected when infection occurs in the presence of drug as compared to in the absence of drug.
Host cells were seeded in 10-cm-diameter dishes and were transfected several days after plating with resistance test vector plasmid DNA and the envelope expression vector. […] HIV capsid protein (p24) levels in the harvested cell culture media were determined by an EIA method as described by the manufacturer (SAIC; Frederick, Md.). […] The inhibitory effect of the drug was determined using the following equation: […]
where RLUluc [drug] is the Relative Light Unit of luciferase activity in infected cells in the presence of drug, and RLUluc is the Relative Light Unit of luciferase activity in infected cells in the absence of drug. […] The percent luciferase stimulation is the negative of the % inhibition calculated using the formula above. […]

For another assay, the system named is RTV-309-3/184M. As to the kind of experiment: Phenotypic susceptibility assay, RTV-309-3/184M. The settings on record: RTV-309-3 with M184V reverted. The assay is classed as cell-based, HIV.
Description: as §1, §2, §3, §4
A resistance test vector containing all of the mutations present in RTV-309-3 except for the M184V (RTV-309-3/184M) was constructed and tested using the phenotypic assay described earlier. The results were compared to those determined using the parent RTV-309-3. We determined the pattern of phenotypic susceptibility to the NNRTIs, delavirdine, nevirapine and efavirenz, in the reverted vector, RTV-309-3/184M.

The structures appear in SMILES notation. Values joined by “and” are separate entries in the source; they are usually repeats but may differ in a detail not shown here. Identical values can stand only once.

On to `CC(C)Nc1cccnc1N1CCN(C(=O)c2cc3cc(NS(C)(=O)=O)ccc3[nH]2)CC1` [delavirdine], for which the “drug-dependent stimulation of viral replication” value (“drug-dependent stimulation” for short) in the assay on M230L-RTV is roughly 50%; in the assay on RTV-013522/270I it was “no longer exhibiting negative inhibition”; in the assay with RTV-K103N/I135T/V245E, roughly 20%; in the assay with RTV-1033-3/184V, roughly 100%; with RTV-309-3/184M it was roughly 50%. The “reduction in susceptibility compared to wild type control RTV” value is on record as 58 fold in the assay on M230L-RTV, 5 fold in the assay with RTV-1033-3/184V and 4 fold in the assay with RTV-309-3/184M. Moreover, the “reductions in susceptibility compared to wild type control RTV” value (“reductions in susceptibility” for short) in the assay on RTV-013522/270I is listed as 40 fold; with RTV-K103N/I135T/V245E, 169 fold. Also, the reduction in susceptibility entry in the assay with RTV-309-3 is “wild type pattern of susceptibility”.
For `O=C1Nc2ccc(Cl)cc2[C@@](C#CC2CC2)(C(F)(F)F)O1` [efavirenz], the “drug-dependent stimulation” value with M230L-RTV was “not”; in the assay with RTV-013522/270I, “no longer exhibiting negative inhibition”; in the assay with RTV-K103N/I135T/V245E, “no drug-dependent stimulation and not”; in the assay on RTV-1033-3/184V it was roughly 80%; in the assay with RTV-309-3/184M it was roughly 60%. The “reduction in susceptibility compared to wild type control RTV” value with M230L-RTV came out at 23 fold; in the assay on RTV-1033-3/184V it was 28 fold; in the assay on RTV-309-3/184M it was 5 fold. Further, the “reductions in susceptibility” value is given as 8 fold with RTV-013522/270I and 93 fold in the assay with RTV-K103N/I135T/V245E. Also, the reduction in susceptibility entry with RTV-309-3 is “wild type pattern of susceptibility”.
For `Cc1ccnc2c1NC(=O)c1cccnc1N2C1CC1` [nevirapine], the “drug-dependent stimulation” value was roughly 50% with M230L-RTV; “no longer exhibiting negative inhibition” in the assay on RTV-013522/270I; roughly 15% in the assay on RTV-K103N/I135T/V245E; roughly 100% in the assay with RTV-1033-3/184V; roughly 80% in the assay with RTV-309-3/184M. The “reduction in susceptibility compared to wild type control RTV” value in the assay on M230L-RTV was 39 fold and 40 fold; in the assay on RTV-1033-3/184V, greater than 600 fold; in the assay with RTV-309-3/184M, 9 fold. Moreover, the “reductions in susceptibility” value with RTV-013522/270I worked out at 14 fold; in the assay with RTV-K103N/I135T/V245E it was 244 fold. Moreover, the reduction in susceptibility in the assay with RTV-309-3 is 3 fold.
